Data published in ChEMBL document CHEMBL4819087, “Identification and optimization of 3-bromo-N'-(4-hydroxybenzylidene)-4-methylbenzohydrazide derivatives as mTOR inhibitors that induce autophagic cell death and apoptosis in triple-negative breast cancer” (Eur J Med Chem, 2021).

Assays:
[1] = biological target: Serine/threonine-protein kinase mTOR (Homo sapiens, UniProt P42345); assay: Inhibition of mTOR (unknown origin)
MDA-MB-231 [2] = assay: Induction of autophagy in human MDA-MB-231 cells assessed as MDC positive ratio at 1 uM incubated for 6 hrs by MDC staining based flow cytometry analysis; format: functional
A549 = assay: cells; conditions: Homo sapiens, A549, 24 h
Description: Antiproliferative activity against human A549 cells assessed as reduction in cell viability incubated for 24 hrs by MTT assay

MDA-MB-231 [3] = assay: cells; conditions: Homo sapiens, MDA-MB-231, 24 h
Description: Antiproliferative activity against human MDA-MB-231 cells assessed as reduction in cell viability incubated for 24 hrs by MTT assay

MDA-MB-468 = assay: cells; conditions: Homo sapiens, MDA-MB-468, 24 h
Description: Antiproliferative activity against human MDA-MB-468 cells assessed as reduction in cell viability incubated for 24 hrs by MTT assay

| SMILES | IC50 [1] [µM] | IC50 (A549) [µM] | IC50 (MDA-MB-231 [3]) [µM] | IC50 (MDA-MB-468) [µM] | Activity (MDA-MB-231 [2]) [%] |
| --- | --- | --- | --- | --- | --- |
| C/C(=N\NC(=O)c1cccc(F)c1)c1ccc(O)cc1O | 4.22 | 15.4 | 10.8 | 9.24 | 15.04 |
| CO[C@H]1C[C@@H]2CC[C@@H](C)[C@@](O)(O2)C(=O)C(=O)N2CCCC[C@H]2C(=O)O[C@H]([C@H](C)C[C@@H]2CC[C@@H](O)[C@H](OC)C2)CC(=O)[C@H](C)/C=C(\C)[C@@H](O)[C@@H](OC)C(=O)[C@H](C)C[C@H](C)/C=C/C=C/C=C/1C [SIROLIMUS] | – | 30.7 | 35.8 | 37.2 | 31.03 |
| O=C(NCc1ccc(O)cc1)Nc1cccc(F)c1 | > 30 | 22.3 | 27.7 | 34.1 | 8.31 |
| O=C(NCc1ccc(O)cc1)Nc1ccc(C(F)(F)F)cc1 | 10.3 | 36.7 | 22.9 | 17.5 | 8.29 |
| Cc1ccc(C(=O)NCCc2ccc(O)cc2)cc1Br | > 30 | 34 | 41.7 | 33.7 | 11.23 |
| O=C(Nc1ccc(C(F)(F)F)cc1)Nc1nc2ccccc2[nH]1 | 23.7 | 23.5 | 22.8 | 23.7 | 8.2 |
| O=C(Nc1nc2ccccc2[nH]1)c1ccc(OC(F)(F)F)cc1 | 3.99 | 27.5 | 29 | 24.1 | 11.22 |
| CN(Cc1ccccc1)C(=O)Nc1ccc(C(F)(F)F)cc1 | 10.1 | 28.8 | 21.2 | 21.9 | 7.34 |
| Cc1ccc(C(=O)Nc2ccc3ccccc3n2)cc1Br | 17.9 | 31.6 | 38 | 27.5 | 13.81 |
| O=C(NCc1cccc(Br)c1)Nc1ccc(C(F)(F)F)cc1 | 15.8 | 26.4 | 20.8 | 24.3 | 9.1 |
| Cc1ccc(C(=O)Nc2cc3ccccc3cn2)cc1Br | 15.3 | 26.4 | 32.1 | 25.9 | 11.8 |
| CC(NC(=O)Nc1cccc(Cl)c1)c1ccccc1 (centres undefined) | > 30 | 24.8 | 22.6 | 23.7 | 9.25 |
| O=C(NCc1ccc(O)cc1)Nc1cccc(Cl)c1 | 27.1 | 31.2 | 19.5 | 25.9 | 9.22 |
| CC(NC(=O)Nc1cccc(F)c1)c1ccccc1 (centres undefined) | 16.9 | 33 | 34.1 | 31.9 | 8.29 |
| C/C(=N\NC(=O)c1ccc(C)c(F)c1)c1ccc(C(=O)Nc2cc(N3CCOCC3)ccn2)cc1 | 3.83 | 13.9 | 13.2 | 12.1 | 19.22 |
| Cc1ccc(C(=O)NCc2ccc(O)cc2)cc1Br | > 30 | 33.8 | 33.4 | 41.9 | 12.73 |
| O=C(Nc1cccc(F)c1)Nc1nc2ccccc2[nH]1 | 4.93 | 19.8 | 19 | 24.1 | 8.32 |

The remaining compounds from weak to strong by IC50 (A549), led by results:

| IC50 [1] [µM] | IC50 (A549) [µM] | IC50 (MDA-MB-231 [3]) [µM] | IC50 (MDA-MB-468) [µM] | SMILES | Activity (MDA-MB-231 [2]) [%] |
| --- | --- | --- | --- | --- | --- |
| 2.45 | 13.7 | 9.21 | 10.2 | C/C(=N\NC(=O)c1cccc(Br)c1)c1ccc(C(=O)Nc2cc(N3CCOCC3)ccn2)cc1 | 20.99 |
| 7.3 | 13.6 | 9.91 | 12.1 | C/C(=N\NC(=O)c1ccc(C)c(Br)c1)c1ccc(N)cc1 | 18.9 |
| 20.4 | 13.3 | 16.9 | 17.9 | O=C(NCc1cc(C(F)(F)F)cc(C(F)(F)F)c1)Nc1ccc(C(F)(F)F)cc1 | 9.62 |
| 6.21 | 13 | 10.9 | 13.1 | C/C(=N\NC(=O)c1cccc(Br)c1)c1ccc(N)cc1 | 15.81 |
| 4.79 | 13 | 13.1 | 8.3 | C/C(=N\NC(=O)c1cccc(I)c1)c1ccc(N)cc1 | 15.27 |
| 17.6 | 12.5 | 13.8 | 17.5 | O=C(NCc1cc(C(F)(F)F)cc(C(F)(F)F)c1)Nc1cccc(F)c1 | 8.77 |
| 5.24 | 12.4 | 11 | 8.69 | C/C(=N\NC(=O)c1ccc(C)c(Br)c1)c1ccncc1 | 15.26 |
| 4.32 | 12 | 8.4 | 9.55 | C/C(=N\NC(=O)c1ccc(C)c(F)c1)c1ccc(N)cc1 | 15.44 |
| 2.29 | 11.8 | 17.6 | 10.9 | CO[C@H]1C[C@@H]2CC[C@@H](C)[C@@](O)(O2)C(=O)C(=O)N2CCCC[C@H]2C(=O)O[C@H]([C@H](C)C[C@@H]2CC[C@@H](OC(=O)C(C)(CO)CO)[C@H](OC)C2)CC(=O)[C@H](C)/C=C(\C)[C@@H](O)[C@@H](OC)C(=O)[C@H](C)C[C@H](C)/C=C/C=C/C=C/1C [TEMSIROLIMUS] | 15.33 |
| 12.6 | 11.5 | 10.3 | 11.9 | O=C(Nc1ccc(C(F)(F)F)cc1)Nc1cccc(F)c1 | 7.22 |
| 1.66 | 11.3 | 9.08 | 10.3 | C/C(=N\NC(=O)c1ccc(C)c(I)c1)c1ccncc1 | 16.25 |
| 4.84 | 11.2 | 8.11 | 8.17 | C/C(=N\NC(=O)c1cccc(Br)c1)c1ccc(C(=O)NN2CCOCC2)cc1 | 17.2 |
| 1.29 | 10.5 | 9.24 | 8.32 | C/C(=N\NC(=O)c1cccc(Br)c1)c1ccc(C(=O)Nc2cc[nH]n2)cc1 | 19.78 |
| 8.2 | 10.3 | 9.13 | 11 | C/C(=N\NC(=O)c1cccc(Br)c1)c1cc(O)cc(O)c1 | 16.33 |
| 2.01 | 10.1 | 6.71 | 8.46 | C/C(=N\NC(=O)c1ccc(C)c(Br)c1)c1ccc(O)cc1 | 19.27 |
| 5.08 | 9.93 | 8.46 | 9.54 | C/C(=N\NC(=O)c1ccc(C)c(I)c1)c1ccc(N)cc1 | 14.28 |
| 1.17 | 9.84 | 12.5 | 12.1 | C/C(=N\NC(=O)c1cccc(I)c1)c1ccncc1 | 15.79 |
| 1.98 | 9.46 | 8.3 | 8.76 | C/C(=N\NC(=O)c1ccc(C)c(I)c1)c1ccc(C(F)(F)F)cc1 | 14.89 |
| 4.76 | 9.07 | 9.3 | 9.91 | C/C(=N\NC(=O)c1ccc(C)c(Br)c1)c1ccc(C(F)(F)F)cc1 | 18.65 |
| 0.82 | 8.91 | 8.96 | 6.37 | C/C(=N\NC(=O)c1cccc(I)c1)c1ccc(C(=O)O)cc1 | 17.2 |
| 0.83 | 7.81 | 5.03 | 6.06 | C/C(=N\NC(=O)c1cccc(F)c1)c1ccc(C(=O)Nc2nc3ccccc3[nH]2)cc1 | 22.34 |
| 0.69 | 7.78 | 7.5 | 5.51 | C/C(=N\NC(=O)c1cccc(Br)c1)c1ccc(C(=O)O)cc1 | 19.83 |
